Reference: article PMC6518791, “Gluconate suppresses seizure activity in developing brains by inhibiting CLC-3 chloride channels” (Molecular Brain, 2019)

Target: T1, CLC-3 Cl^− channels (neonatal mouse hippocampal CA3 pyramidal neurons) (Mus musculus, UniProt P51791)
T1 construct: gene Clcn3; native channel, CA3 pyramidal neurons in hippocampal slices (P10-12); current largely absent in Clcn3-/- neurons
T1 sequence (P51791 1-818): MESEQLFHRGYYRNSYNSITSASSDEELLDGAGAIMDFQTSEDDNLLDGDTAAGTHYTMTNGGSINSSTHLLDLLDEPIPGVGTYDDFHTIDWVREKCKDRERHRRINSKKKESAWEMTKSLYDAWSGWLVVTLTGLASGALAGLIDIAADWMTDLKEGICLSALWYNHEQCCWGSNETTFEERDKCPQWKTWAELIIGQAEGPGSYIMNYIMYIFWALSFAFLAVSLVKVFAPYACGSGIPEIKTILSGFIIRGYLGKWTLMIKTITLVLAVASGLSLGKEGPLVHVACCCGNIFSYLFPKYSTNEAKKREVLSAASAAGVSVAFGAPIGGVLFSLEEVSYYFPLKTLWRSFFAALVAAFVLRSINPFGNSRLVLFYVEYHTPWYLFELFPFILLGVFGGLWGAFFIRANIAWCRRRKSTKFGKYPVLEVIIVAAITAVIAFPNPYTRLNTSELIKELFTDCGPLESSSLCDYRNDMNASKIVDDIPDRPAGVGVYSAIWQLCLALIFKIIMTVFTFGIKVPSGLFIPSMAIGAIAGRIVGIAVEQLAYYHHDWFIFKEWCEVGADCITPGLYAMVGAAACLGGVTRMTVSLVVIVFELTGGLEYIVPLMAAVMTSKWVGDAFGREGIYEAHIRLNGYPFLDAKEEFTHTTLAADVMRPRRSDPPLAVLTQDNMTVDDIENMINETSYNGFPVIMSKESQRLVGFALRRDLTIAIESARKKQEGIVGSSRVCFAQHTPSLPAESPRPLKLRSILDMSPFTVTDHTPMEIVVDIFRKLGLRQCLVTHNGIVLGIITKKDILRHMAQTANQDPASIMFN
Assay: whole-cell patch clamp, voltage-dependent Cl- current in brain slices
Conditions: total neuronal Cl- current, no knockout control told

IC50: ~6.2 mM
SMILES: C[C@@H](O)CC(=O)O [β-HB]
